Data reported in patent publication US10632106B2, “Methods of cancer treatment with 2-(1′H-Indole-3′-carbonyl)-thiazole-4-carboxylic acid methyl ester” (Ariagen, Inc., priority 2009, dated 2020).

System: human prostate cancer cell line LNCaP xenografts
Assay: LNCaP xenograft growth inhibition in nude mice
Assay type: in vivo
Settings: for TGI (Tumor Growth Inhibition): TGI=ΔT/ΔC×100%
Procedure: All the procedures related to animal handling, care, and the treatment in the study were performed following guidelines approved by an Institutional Animal Care and Use Committee (IACUC) of Crown Bioscience, Inc. (Santa Clara, Calif., USA, a contract research organization we hired) based on the guidance of the Association for Assessment and Accreditation of Laboratory Animal Care (AAALAC). Animals were checked for any effects of tumor growth and drug treatment on normal behavior such as mobility, food and water consumption, body weight gain/loss (gross body weights were measured twice weekly), eye/hair matting, and any other abnormal effect. Death and observed clinical signs were recorded on the basis of the number of animals within each group. Individual animals with a tumor volume exceeding 3,000 mm^3 or animals of a group with a mean tumor volume exceeding 2,000 mm^3 were euthanized. In addition, animals showing signs of severe distress and/or pain, dropping body weight more than 20% from that at the start of treatment, or losing the capability of accessing adequate food or water were humanely sacrificed.
The human prostate cancer cell line LNCaP (ATCC, American Type Culture Collection, Manassas, Va., USA) were maintained in vitro as monolayer culture in RPMI-1640 medium supplemented with 10% fetal bovine serum (FBS), 100 U/ml penicillin, 100 μg/ml streptomycin, and 2 mM L-glutamine at 37° C. in an atmosphere of 5% CO2 in air. The tumor cells were routinely subcultured twice a week. The cells growing in an exponential phase were harvested and counted for tumor inoculation.
Each mouse was inoculated subcutaneously at the right flank with the LNCaP cells (1×10^7) in 0.1 ml of PBS for tumor development. When a mean tumor volume reached around 150 mm^3, the tumor-bearing mice were divided into homogeneous blocks based on their tumor volumes followed by a randomization of mice in each block into treatment groups (thus minimizing variations in tumor response to treatments due to the differential in initial mean tumor volumes). Each treatment group was consisted of 8 tumor-bearing mice. Vehicle (DMSO) or ITE in the vehicle at specified doses were administered to the mice by either i.p. (intraperitoneal) or p.o. (oral) injection once or twice daily for 28 continuous days as indicated.
Tumor volume was measured twice weekly in two dimensions using a caliper and the volume was calculated with a formula of: V=0.5 a×b^2, where a and b are the long and short diameter (in mm) of a tumor, respectively. The tumor volume was then used for calculations of both TGI (Tumor Growth Inhibition) and TGD (Tumor Growth Delay). The TGI was determined by: TGI=ΔT/ΔC×100%, where ΔT was a difference between the mean tumor volume at a specified day of observation and that at the day treatment starts (day 1) for a drug treated group whereas ΔC was the same difference measured for the control group. The TGD was calculated as: TGD=T−C, where T was the time (in days) required for tumors in a drug treated group to reach a predetermined mean tumor volume and C the time (in days) in the control group to reach the same volume. A tumor weight was derived by equating 1,000 mm^3 in volume to 1,000 mg in weight. A net body weight was then derived by subtracting a tumor weight from a corresponding gross body weight with the tumor.
Summary statistics, including mean and the standard error of the mean (SEM), are provided for the tumor volume of each group at each time point. Statistical analysis of difference in tumor volume among groups was conducted on a data set either at the best therapeutic time point or at the final dosing day as indicated. The tumor volume data were log-transformed and evaluated using a one-way ANOVA followed by Tukey's test when significance was observed. All data were analyzed using SPSS 16.0 and p<0.05 was considered to be statistically significant.

COC(=O)c1csc(C(=O)c2c[nH]c3ccccc23)n1 [ITE, 2-(1′H-indole-3′-carbonyl)-thiazole-4-carboxylic acid methyl ester]
TGD (Tumor Growth Delay) (20 mg/kg b.w. i.p. once daily, at a tumor volume of 1,000 mm^3): 8 days
TGI (Tumor Growth Inhibition) (20 mg/kg b.w. i.p. once daily, day 28): 64%
toxic response judged from body weight changes of tumor-bearing mice (0.1-40 mg/kg b.w. i.p. every 12 hr for 28 days): did not seem to provoke significant toxic response
TGI (Tumor Growth Inhibition) (ITE 0.1 mg/kg b.w. i.p. every 12 hr for 28 days, DMSO, day 28): 74%
TGI (Tumor Growth Inhibition) (ITE 1 mg/kg b.w. i.p. every 12 hr for 28 days, day 28): 52%
TGD (Tumor Growth Delay) (ITE 1 mg/kg b.w. i.p. every 12 hr, at a tumor size of 600 mm^3): 3 days
TGI (Tumor Growth Inhibition) (ITE 10 mg/kg b.w. i.p. every 12 hr for 28 days, day 28): 31%
TGD (Tumor Growth Delay) (ITE 10 mg/kg b.w. i.p. every 12 hr, at a tumor size of 600 mm^3): 10 days
TGI (Tumor Growth Inhibition) (ITE 20 mg/kg b.w. i.p. every 12 hr for 28 days, day 28): 26%
TGD (Tumor Growth Delay) (ITE 20 mg/kg b.w. i.p. every 12 hr, at a tumor size of 600 mm^3): 12 days
TGI (Tumor Growth Inhibition) (ITE 40 mg/kg b.w. i.p. every 12 hr for 28 days, day 28): 22%
TGD (Tumor Growth Delay) (ITE 40 mg/kg b.w. i.p. every 12 hr, at a tumor size of 600 mm^3): 16 days
TGI (Tumor Growth Inhibition) (ITE 80 mg/kg p.o. daily, day 24): 46%
TGI (Tumor Growth Inhibition) (ITE 80 mg/kg twice daily i.p., day 28): 12%
TGI (Tumor Growth Inhibition) (ITE 80 mg/kg twice daily i.p., the last day): 16%
